These results are taken from patent US20150045301A1, “METHODS AND USES OF ANP (ATRIAL NATRIURETIC PEPTIDE), BNP (BRAIN NATRIURETIC PEPTIDE) AND CNP (C-TYPE NATRIURETIC PEPTIDE)-RELATED PEPTIDES AND DERIVATIVES THEREOF FOR TREATMENT OF RETINAL DISORDERS AND DISEASES” (KALOS Therapeutics, Inc., priority 2011, published 2015).

Assay [1] has as its system Human Pancreatic Adenocarcinoma Cells (HPAC). Put plainly: HPAC cell viability / anti-cell proliferative assay (Calbiochem Rapid Cell Proliferation Kit, OD 450 nm). As to conditions: 48 hours; for Optical Densities in 96_Well Plate, Average: average of 5 wells; for Optical Densities in 96_Well Plate, single well: one of 5 replicate wells. The format is cell-based. The method, then:
Human Pancreatic Adenocarcinoma Cells (HPAC) cells were obtained from ATCC and propagated in Dulbecco's modified Eagle's medium and Ham's F12 medium (DME-F12) (1:1) containing 2.5 mM glutamine, […], 5 ug/mL transferrin, 1 ng/mL EGF (epidermal growth factor), plus 5% FBS (fetal bovine serum). Cell cultures were incubated at 37° C., 5% CO2 in a 100% humidity atmosphere. The cells were routinely brought to confluence in T-flasks, rinsed with phosphate buffered saline(PBS), and treated with trypsin for 5 min at room temp. The trypsinized cells were rinsed from the plate with 10 mL medium and counted. Viability at subculturing was generally ≧95%.
Approximately 10,000 cells in 100 uL of medium were placed in each well of a 96-well plate and incubated over night. Peptides having the following sequences were used: Arg-15-Cys (RSSCAGAALSPLGAC); Pro-15-Val (PNEEAGAALSPLPEV); Ala-8-Leu (AGALSPL); C-ANP 4-23 ([…]) and, VDL ([…]). The peptides were dissolved in PBS and sterile filtered. The peptides were diluted into the cell culture medium to the following final concentrations: 1, 0.3, 0.1, 0.03, and 0.01 uM. Each peptide was tested in 5 replicate wells. The cultures were incubated for an additional 48 hours at 37° C.
The viability of the cells was determined using a Calbiochem Rapid Cell Proliferation Kit (catalog number QIA127). Ten uL of Calbiochem color reagent was added to each well and incubated for an additional 1.5 hours at 37° C. Optical densities were read at 450 nm using a Molecular Devices ThermoMax microplate reader. The plate template is shown in Table I (unlabeled wells contained cells but no peptide and were used as blanks). Results are presented in Table I, and are graphically illustrated in FIGS. 1 and 2.

Assay [2] has as its system cancer cells. Nature of the assay: Anti-cancer activity of peptides with the conserved motif (cell proliferative assay). The assay is classed as cell-based. The conditions noted are these: statement in the description. The text has this: This example describes activity of peptides having a conserved motif and conserved amino acids predicted to be functional in the motif. (Table III). This example also describes additional exemplary peptide sequences having a conserved motif predicted to have activity (Table IV). Notations “Res 1, Res 2” etc., herein refer by single letter abbreviation the amino acid in the exemplary peptide 8-mer. “Activity” can be determined by a cell proliferative assay, such as an assay described herein or known to one of skill in the art. Of course, peptides exemplified in Table IV can include the conserved motif peptide as part of a larger protein. The SEQ ID NO is the same as the peptide number. Each of these exemplary peptides can be analyzed in vitro, ex vivo, and in vivo for anti-cell proliferative activity using an assay, such as a cell based in vitro assay described in Examples 1 or 4.

Assay [3] has as its system cancer cells. The conditions noted are these: comparison between natriuretic peptides, Vesely 2008; cited from earlier work.
Assay [4] addresses T1, NPRC (Homo sapiens, UniProt P17342).
T1 sequence (P17342 27-541): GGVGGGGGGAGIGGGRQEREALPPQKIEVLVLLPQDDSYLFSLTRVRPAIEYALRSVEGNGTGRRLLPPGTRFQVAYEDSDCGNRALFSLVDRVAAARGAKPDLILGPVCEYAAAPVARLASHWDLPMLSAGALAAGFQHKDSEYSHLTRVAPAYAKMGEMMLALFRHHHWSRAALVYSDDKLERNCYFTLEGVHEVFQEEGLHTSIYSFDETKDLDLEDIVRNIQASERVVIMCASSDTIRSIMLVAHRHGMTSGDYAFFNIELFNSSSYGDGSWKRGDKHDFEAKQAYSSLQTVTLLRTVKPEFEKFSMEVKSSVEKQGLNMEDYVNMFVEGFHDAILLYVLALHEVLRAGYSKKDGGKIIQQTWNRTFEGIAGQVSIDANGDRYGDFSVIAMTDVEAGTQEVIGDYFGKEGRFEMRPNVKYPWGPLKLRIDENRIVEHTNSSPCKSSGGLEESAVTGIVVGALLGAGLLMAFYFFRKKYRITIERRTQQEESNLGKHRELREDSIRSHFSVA
The conditions noted are these: comparison between natriuretic peptides, Vesely 2008; cited from earlier work.

Assay [5] relates to Human RPE cells (ARPE-19). Nature of the assay: Transepithelial electrical resistance (TEER) of RPE cell layer treated with VEGF. The conditions noted are these: ARPE-19 cell layer, VEGF 10 ng/ml. The format is cell-based.

Several values for one entry are separate records, joined by “and”; a condition that tells them apart may be missing. Equal entries are not always repeated. Entries after “also recorded” stand apart in the source; their conditions may differ.

On to “AGALSPL [Ala-8-Leu, 8-mer conserved motif peptide]”, for which the “Optical Densities in 96_Well Plate, Average” value (“Optical Densities … Average” below) stood at 0.937 in assay [1] (peptide 0.01 μM); 0.976 in assay [1] (peptide 0.03 μM); 0.991 in assay [1] (peptide 0.1 μM); 1.002 in assay [1] (peptide 0.3 μM); 0.985 in assay [1] (peptide 1.0 μM). In addition, the “Optical Densities in 96_Well Plate, single well” value (from here on “Optical Densities … single well”) in assay [1] (peptide 0.01 μM) is 0.744 and 0.878 and 1.000 and 0.892 and 1.169; in assay [1] (peptide 0.03 μM) it was 0.892 and 0.937 and 0.989 and 0.921 and 1.139; in assay [1] (peptide 0.1 μM), 0.832 and 1.006 and 1.031 and 0.910 and 1.174; in assay [1] (peptide 0.3 μM) it was 0.784 and 0.802 and 0.998 and 1.357 and 1.070; in assay [1] (peptide 1.0 μM), 0.732 and 1.216 and 0.954 and 0.834 and 1.189.

As for “BNP: brain natriuretic peptide; motif in Table III FGKRMDRI”, the “Activity of peptides sharing the conserved motif” value in assay [2] is on record as “have activity”.

“CNP: C-type natriuretic peptide; motif in Table III FGLKLDRI”: the “Activity of peptides sharing the conserved motif” value in assay [2] is listed as “have activity; also recorded: less active than ANP, LANP, KP or VDL”. Moreover, the “Relative potency of NPs” value in assay [3] was “greater potency of CNP than BNP”. The “Relative binding affinity at NPRC” value in assay [4] is listed as “higher binding affinity than BNP specifically at NPRC”.

For “EVVPPQVLSEPNEEAGAALSPLPEVPPWTGEVSPAQR [KT-220 (VDL), vessel dilator VDL]”, in assay [2], the “Activity of peptides sharing the conserved motif” value is given as “have activity”.

For “KP: ANP-related peptide; motif in Table III LKSKLRAL (SSDRSALLKSKLRALLTAPR; Kaliuretic peptide; UniProt P01160 104-123, looked up)”, the “Activity of peptides sharing the conserved motif” value in assay [2] is given as “have activity”.

As to “LANP: ANP-related peptide; motif in Table III FKNLLDHL (NPMYNAVSNADLMDFKNLLDHLEEKMPLED; Long-acting natriuretic peptide; UniProt P01160 26-55, looked up)”, the “Activity of peptides sharing the conserved motif” value in assay [2] is given as “have activity”.

PNEEAGAALSPLPEV [Pro-15-Val]: the “Optical Densities … Average” value in assay [1] (peptide 0.01 μM) is 0.916; in assay [1] (peptide 0.03 μM), 0.894; in assay [1] (peptide 0.1 μM), 0.918; in assay [1] (peptide 0.3 μM), 0.916; in assay [1] (peptide 1.0 μM), 0.948. Moreover, the “Optical Densities … single well” value is 0.907 and 0.905 and 0.633 and 1.209 and 0.928 in assay [1] (peptide 0.01 μM); 0.892 and 0.765 and 0.693 and 1.151 and 0.970 in assay [1] (peptide 0.03 μM); 0.680 and 0.895 and 0.893 and 1.156 and 0.964 in assay [1] (peptide 0.1 μM); 0.875 and 0.817 and 0.855 and 1.024 and 1.010 in assay [1] (peptide 0.3 μM); 0.856 and 0.752 and 0.802 and 1.083 and 1.248 in assay [1] (peptide 1.0 μM).

On to RSSCAGAALSPLGAC [Arg-15-Cys], for which the “Optical Densities … Average” value in assay [1] (peptide 0.01 μM) was 0.934; in assay [1] (peptide 0.03 μM) it was 0.982; in assay [1] (peptide 0.1 μM) it was 0.950; in assay [1] (peptide 0.3 μM) it was 0.897; in assay [1] (peptide 1.0 μM), 0.962. In addition, the “Optical Densities … single well” value in assay [1] (peptide 0.01 μM) is 0.974 and 0.920 and 0.863 and 0.840 and 1.075; in assay [1] (peptide 0.03 μM) it was 1.093 and 0.894 and 0.789 and 0.955 and 1.178; in assay [1] (peptide 0.1 μM), 1.016 and 0.917 and 0.801 and 0.990 and 1.025; in assay [1] (peptide 0.3 μM) it was 0.988 and 0.957 and 0.668 and 0.913 and 0.959; in assay [1] (peptide 1.0 μM), 1.155 and 1.005 and 0.787 and 0.944 and 0.919.

“RSSCFGGRIDRIGAC [C-ANP 4-23, the ANP analog, reference compound]”: the “Optical Densities … Average” value stood at 0.938 in assay [1] (peptide 0.01 μM); 0.932 in assay [1] (peptide 0.03 μM); 0.942 in assay [1] (peptide 0.1 μM); 0.942 in assay [1] (peptide 0.3 μM); 0.925 in assay [1] (peptide 1.0 μM). For the same substance, the “Optical Densities … single well” value in assay [1] (peptide 0.01 μM) was 0.877 and 0.971 and 0.953 and 0.932 and 0.958; in assay [1] (peptide 0.03 μM), 0.905 and 0.882 and 0.981 and 0.948 and 0.943; in assay [1] (peptide 0.1 μM), 0.758 and 1.027 and 0.983 and 0.960 and 0.982; in assay [1] (peptide 0.3 μM) it was 0.840 and 0.928 and 1.035 and 0.975 and 0.932; in assay [1] (peptide 1.0 μM), 0.865 and 0.925 and 0.900 and 0.955 and 0.981. Further, the “Activity of peptides sharing the conserved motif” value in assay [2] is listed as “have activity”.

As for VEGF, in assay [5], the “Effect on transepithelial electrical resistance (TEER)” value is given as “lowered resistance”.
